Patent publication EP1255573B1, “COMPOSITIONs comprising monoperphthalic acid useful for treating contact lens” (Novartis AG, priority 2000, dated 2001)

Experiments:
[1] = Stability of magnesium perphthalate (statement); assay type: physicochemical
[2] = Solubility (statement); assay type: physicochemical
[3] = system: L929 mammalian fibroblasts; assay: MEM toxicity test (USP standard elution cytotoxicity, trypan blue); assay type: cell-based; design: key to toxicity, MEM level / MEM Result: 0: No cell lysis - Discrete intracytoplasmic granules; 1: Not more than 20% of cells round and loosely attached - occasional lysed cells present; 2: Not more than 50% of cells round - extensive cell lysis and empty areas between cells; 3: Not more than 70% of the cell layers contain rounded cells and/or lysed; 4: Nearly complete destruction of the cell layer
Excerpt: In testing the toxicity of compounds of the compositions disclosed in solution, an MEM test procedure is used. The MEM (Minimum Essential Medium) test procedure is employed to evaluate cytoxicity using standard USP (The United States Pharmacopeial Convention) elution assays. A description of the test procedure is provided herein.
The assay provides a means of evaluating extracts of polymeric materials under direct contact conditions. This method is appropriate for high-density materials and for dose-response evaluations.
Media Preparation: 1X MEM media is prepared by mixing 100 mL Eagle's MEM (with Earl's Salts and Sodium Bicarbonate, without L-glutamine), with 10mL serum, 1 mL-glutamine solution, and 0.5 mL antibiotic solution (L-glutamine and antibiotic solutions are purchased at correct concentrations and stored frozen at -20 °C±2). Eagle's
Before use, a 4 ml aliquot of 10X trypsin is diluted 1:9 with 36 ml of Dulbecco's Phosphate Buffered Saline (PBS) to yield a 0.25% solution. Dulbecco's Saline is available from Mediatech Cellgro. Sterile 35 mm diameter petri dishes or 6 well tissue culture plates are used. Sterile serological pipets are employed in the procedure. Sterile absorbent material (e.g. Kay-Drys or similar material) is used. L929 mammalian fibroblasts (ATCC cell line CCL1, NCTC clone 929) are employed.
Overview of Method: Cell cultures are grown to a near confluent monolayer in 6 well plates (the wells are 35mm). After the test, material is extracted under various conditions (i.e. extracting medium, time, temperature) so as to allow evaluation of extract toxicity in accordance with USP procedures. These procedures define methods to be used to extract materials for in vivo or in vitro toxicity evaluations in accordance with United States Pharmacopoeia (USP). The Sodium Chloride Injection extract is diluted with serum-supplemented cell culture medium at 25% extract concentration. Each culture is examined microscopically after 48 hours using trypan blue for the presence of morphological changes, reduction in cell density or cell lysis induced by the test material.
Cell Layer Preparation: The next step is to tryptanize cells. Next, one determines cell density using standard methods to define standard cell biology methods to be used to determine and adjust the concentration of a cell suspension, i.e. cell density. Then, an adjustment is made to yield a standard cell suspension with a density of 250,000 to 350,000 cell/mL in serum supplemented MEM for L929 cells. Seed cells are placed into 6 well plates by pipetting 2 ml of the standard cell suspension into each well. […]
Exposure to Test Extracts: Exposure to test extracts is determined examining a representative prepared cell culture plate using the microscope to observe the cell monolayer for correct confluency. […]

With `O.O.O.O.O.O.O=C([O-])c1ccccc1C(=O)O[O-].[Mg+2]` [magnesium perphthalate, magnesium monoperoxyphthalate hexahydrate] the stability ([1]; in aqueous solution) was “not stable”, the stability ([1]; in solid form) was “stable” and the solubility [2] was “freely soluble”. The “toxicity, MEM Test Result level” value ([3]; concentrations below 0.5%, generally) was 1 (Not more than 20% of cells round and loosely attached - occasional lysed cells present), the “toxicity, MEM level” value ([3]; concentrations of 0.5% and above, with and without saline) was 4 and the toxicity ([3]; concentrations of about 0.25% and below in a chloride or other halide-containing solution) was “not toxic”. The “MEM Result” value ([3]; some test results at below 0.5% magnesium perphthalate) was 0.
